Where two headings read alike, the source gives them in different places.

What all share (assay): microbe, parasite or virus in culture
Holding throughout (type): cell-based, Hepatitis C virus (HCV)
What all share (details): Replicon Assay A

One experiment deals with HCV replicon 1A. An outline of the steps: (§1)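 Cells seeded 2000/well + compound; 0.5% DMSO, 5% FBS; harvest day 3, lyse. Multiplex TaqMan RT-PCR for replicon (Neo probe) and cyclophilin RNA; amounts from Ct vs log(ng) linear regression of replicon total RNA standards.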
A further experiment has as its system HCV replicon 2B. The essentials:
as §1

A further experiment has as its system HCV replicon 1AY93H. An outline of the steps: as §1
Where [1] appears, read: read-out: 2B IC50, HCV replicon 2B.
Where [2] appears, read: read-out: 1A Y93H IC50, HCV replicon 1A Y93H.
[3] abbreviates: Hepatitis C virus, HCV replicon 1A.
[4] abbreviates: Hepatitis C virus, read-out: 2B IC50 (nM), replicon 2B.
Where [5] appears, read: Hepatitis C virus, read-out: 1A Y93H IC50 (nM), replicon 1AY93H.
The mark [6] stands for this setting: read-out: 1A Y93H IC50, replicon 1AY93H.
Setting [7] is: Hepatitis C virus, read-out: 2B IC50, HCV replicon 2B.
Where [8] appears, read: Hepatitis C virus, read-out: 1A Y93H IC50, HCV replicon 1A Y93H.

For orientation: IC50 means the concentration at which inhibition is half-maximal. As to `COCc1ccc(C2Oc3cc(-c4cnc([C@@H]5CCCN5C(=O)[C@@H](NC(=O)OC)C(C)C)[nH]4)cc(F)c3-c3cc4cc(-c5cnc([C@@H]6CCCN6C(=O)[C@@H](NC(=O)OC)[C@@H]6C[C@@H](C)O[C@@H](C)C6)[nH]5)ccc4n32)s1` (single isomer, unassigned) [Compound 533], the IC50 was 0.00373 nM with HCV replicon 1A (HCV replicon 1A), 0.429 nM in the experiment with HCV replicon 2B (setting [1]) and 0.0913 nM in the experiment on HCV replicon 1AY93H (setting [2]).
The corresponding values for `COC(=O)N[C@H](C(=O)N1C[C@H](F)C[C@H]1c1ncc(-c2ccc3c(c2)cc2n3C(c3cc4ccccc4s3)Oc3cc(-c4cnc([C@@H]5CCCN5C(=O)[C@@H](NC(=O)OC)C5CCOCC5)[nH]4)ccc3-2)[nH]1)C(C)C` (single isomer, unassigned) [Compound 624] are 0.0021 nM, 0.418 nM and 0.494 nM.
In the case of `COC(=O)N[C@H](C(=O)N1CCC[C@H]1c1ncc(-c2cc(F)c3c(c2)OC(c2cc(C)c(C)s2)n2c-3cc3cc(-c4cnc([C@@H]5C[C@H]6C[C@H]6N5C(=O)[C@@H](NC(=O)OC)C(C)C)[nH]4)ccc32)[nH]1)C(C)C` (single isomer, unassigned) [Compound 508], the IC50 in the experiment with HCV replicon 1A (setting [3]) was found to be 0.0409 nM; in the experiment on HCV replicon 2B (setting [1]) it was 7.09 nM; in the experiment on HCV replicon 1AY93H (setting [2]) it was 0.608 nM.
For `COC(=O)N[C@H](C(=O)N1CCC[C@H]1c1ncc(-c2cc(F)c3c(c2)OC(c2cc(C)sc2C)n2c-3cc3cc(-c4cnc([C@@H]5CCCN5C(=O)[C@@H](NC(=O)OC)C(C)C)[nH]4)ccc32)[nH]1)C(C)C` (single isomer, unassigned) [Compound 319], the IC50 in the experiment with HCV replicon 1A (Hepatitis C virus, replicon 1A) was 0.001 nM; in the experiment on HCV replicon 2B (setting [4]), 8.06 nM; in the experiment with HCV replicon 1AY93H (setting [5]), 9.38 nM.
For the molecule `COC(=O)N[C@H](C(=O)N1CCC[C@H]1c1nc(-c2ccc3c(c2)OC(c2ccc(C)s2)n2c-3cc3cc(-c4c[nH]c([C@@H]5NCCN5C(=O)[C@@H](NC(=O)OC)C(C)C)n4)ccc32)c[nH]1)C(C)C` (single isomer, unassigned) [Compound 700], the values for the IC50 in the experiment on HCV replicon 1A (HCV replicon 1A), in the experiment on HCV replicon 2B (setting [1]) and with HCV replicon 1AY93H (setting [2]) were 0.015 nM, 0.39 nM and 1.17 nM, respectively.
In the case of `CCc1ccc(C2Oc3cc(-c4cnc([C@@H]5CCCN5C(=O)[C@@H](NC(=O)OC)C(C)C)[nH]4)cc(F)c3-c3cc4cc(-c5cnc([C@@H]6CCCN6C(=O)C(NC(=O)OC)C6CCOC(C)(C)C6)[nH]5)ccc4n32)s1` (single isomer, unassigned) [Compound 147], the IC50 in the experiment with HCV replicon 1A (replicon 1A) worked out at 0.0025 nM; in the experiment with HCV replicon 2B (read-out: 2B IC50, replicon 2B), 0.62 nM; in the experiment on HCV replicon 1AY93H (setting [6]), 0.43 nM.
Take `COC(=O)N[C@H](C(=O)N1CCC[C@H]1c1ncc(-c2ccc3c(c2)OC(c2cc4ccccc4s2)n2c-3cc3cc(-c4cnc([C@@H]5C[C@H]6C[C@H]6N5C(=O)[C@@H](NC(=O)OC)C(C)C)[nH]4)ccc32)[nH]1)C(C)C` (single isomer, unassigned) [Compound 608]: the figures for the IC50 in the experiment on HCV replicon 1A (HCV replicon 1A), with HCV replicon 2B (setting [1]) and with HCV replicon 1AY93H (setting [2]) were 0.0035 nM, 0.031 nM and 0.0529 nM, respectively.
Regarding `COC(=O)N[C@H](C(=O)N1CCC[C@H]1c1ncc(-c2cc(F)c3c(c2)OC(c2sc(C4CC4)cc2C)n2c-3cc3cc(-c4cnc([C@@H]5CCCN5C(=O)[C@@H](NC(=O)OC)C(C)C)[nH]4)ccc32)[nH]1)C(C)C` (single isomer, unassigned) [Compound 329], the IC50 with HCV replicon 1A (replicon 1A) stood at 0.0012 nM; in the experiment with HCV replicon 2B (read-out: 2B IC50, replicon 2B), 0.605 nM; in the experiment on HCV replicon 1AY93H (setting [6]), 0.937 nM.
Taken in the same sequence, the figures for `COC(=O)N[C@H](C(=O)N1CCC[C@H]1c1ncc(-c2cc(F)c3c(c2)OC(c2ccc(CC4CC4)s2)n2c-3cc3cc(-c4cnc([C@@H]5C[C@H]6C[C@H]6N5C(=O)[C@@H](NC(=O)OC)C(C)C)[nH]4)ccc32)[nH]1)C(C)C` (single isomer, unassigned) [Compound 390] were 0.003 nM, 0.754 nM and 0.314 nM.
As to `COC(=O)N[C@H](C(=O)N1CCC[C@H]1c1ncc(-c2cc(F)c3c(c2)OC(c2csc4ccccc24)n2c-3cc3cc(-c4cnc([C@@H]5CCCN5C(=O)[C@@H](NC(=O)OC)C(C)C)[nH]4)ccc32)[nH]1)C(C)C` (single isomer, unassigned) [Compound 323], the half-inhibitory concentration (IC50) in the experiment on HCV replicon 1A (Hepatitis C virus, replicon 1A) turned out to be 0.0021 nM; in the experiment on HCV replicon 2B (setting [4]), 15.8 nM; with HCV replicon 1AY93H (setting [5]), 2.51 nM.
`COC(=O)NC(C(=O)N1CCC[C@H]1c1ncc(-c2cc(F)c3c(c2)OC(c2ccc(C4CC4)s2)n2c-3cc3cc(-c4cnc([C@@H]5CCCN5C(=O)[C@@H](NC(=O)OC)C(C)C)[nH]4)ccc32)[nH]1)C1CCOC(C)(C)C1` (single isomer, unassigned) [Compound 210]: the IC50 with HCV replicon 1A (replicon 1A) was 0.0018 nM; in the experiment on HCV replicon 2B (read-out: 2B IC50, replicon 2B), 0.33 nM; in the experiment with HCV replicon 1AY93H (setting [6]) it was 0.52 nM.
Turning to `COC(=O)N[C@H](C(=O)N1CCC[C@H]1c1ncc(-c2cc(C)c3c(c2)OC(c2cc4c(s2)CCC4)n2c-3cc3cc(-c4cnc([C@@H]5CCCN5C(=O)[C@@H](NC(=O)OC)C5C[C@@H](C)O[C@@H](C)C5)[nH]4)ccc32)[nH]1)C(C)C` (single isomer, unassigned) [Compound 549], the half-maximal inhibitory concentration (IC50) in the experiment with HCV replicon 1A (HCV replicon 1A) came out at 0.00715 nM; in the experiment with HCV replicon 2B (setting [1]), 0.169 nM; in the experiment with HCV replicon 1AY93H (setting [2]), 0.563 nM.
As to `COC(=O)N[C@H](C(=O)N1CCC[C@H]1c1ncc(-c2cc(C)c3c(c2)OC(c2cc4c(s2)CCC4)n2c-3cc3cc(-c4cnc([C@@H]5CCCN5C(=O)[C@@H](NC(=O)OC)C5C[C@@H](C)O[C@@H](C)C5)[nH]4)ccc32)[nH]1)C(C)C` (single isomer, unassigned) [Compound 550], the IC50 with HCV replicon 1A (HCV replicon 1A) stood at 0.03 nM; in the experiment on HCV replicon 2B (setting [1]), 0.0435 nM; with HCV replicon 1AY93H (setting [2]) it was 0.154 nM.
For `[2H]C(C)(C)C(NC(=O)OC)C(=O)N1CCC[C@H]1c1ncc(-c2cc(F)c3c(c2)OC(c2ccc(C4CC4)s2)n2c-3cc3cc(-c4cnc([C@@H]5CCCN5C(=O)[C@@H](NC(=O)OC)C(C)C)[nH]4)ccc32)[nH]1` (single isomer, unassigned) [Compound 29], the IC50 with HCV replicon 1A (replicon 1A) came to 0.0024 nM; in the experiment on HCV replicon 2B (read-out: 2B IC50, replicon 2B), 1.98 nM; in the experiment with HCV replicon 1AY93H (setting [6]), 1.32 nM.
Consider `COC(=O)N[C@H](C(=O)N1C[C@H](F)C[C@H]1c1ncc(-c2ccc3c(c2)OC(c2cc4ccccc4s2)n2c-3cc3cc(-c4cnc([C@@H]5C[C@@H](F)CN5C(=O)[C@@H](NC(=O)OC)C5CCOCC5)[nH]4)ccc32)[nH]1)C(C)C` (mixture of isomers) [Compound 807], for which the half-inhibitory concentration (IC50) in the experiment with HCV replicon 1A (setting [3]) stood at 0.003 nM; in the experiment with HCV replicon 2B (setting [7]) it was 2 nM; in the experiment with HCV replicon 1AY93H (setting [8]), 0.025 nM.
Taken in the same sequence, the figures for `CCN(CC)[C@@H](C(=O)N1CCC[C@H]1c1ncc(-c2ccc3c(c2)cc2n3C(c3cc4ccccc4s3)Oc3cc(-c4cnc([C@@H]5C[C@@H](F)CN5C(=O)[C@@H](c5ccccc5)N(CC)CC)[nH]4)ccc3-2)[nH]1)c1ccccc1` (mixture of isomers) [Compound 808] were 0.026 nM, 0.32 nM and 1.2 nM.
`COC(=O)NC(C(=O)N1CCC[C@H]1c1ncc(-c2ccc3c(c2)cc2n3C(c3ccc(C4CC4)s3)Oc3cc(-c4cnc([C@@H]5CCCN5C(=O)[C@@H](NC(=O)OC)C(C)C)[nH]4)cc(F)c3-2)[nH]1)C1C[C@@H](C)O[C@H](C)C1` (single isomer, unassigned) [Compound 193]: the IC50 is 0.0256 nM in the experiment on HCV replicon 1A (replicon 1A); 18.6 nM in the experiment on HCV replicon 2B (read-out: 2B IC50, replicon 2B); 4.75 nM in the experiment with HCV replicon 1AY93H (setting [6]).
As for `COC(=O)N[C@H](C(=O)N1CCC[C@H]1c1ncc(-c2ccc3c(c2)OC(c2cc4ccccc4s2)n2c-3cc3cc(-c4cnc([C@@H]5C[C@H]6C[C@H]6N5C(=O)[C@@H](NC(=O)OC)C(C)C)[nH]4)ccc32)[nH]1)C(C)C` (single isomer, unassigned) [Compound 609], the IC50 in the experiment on HCV replicon 1A (HCV replicon 1A) stood at 0.0074 nM; with HCV replicon 2B (setting [1]) it was 0.995 nM; in the experiment with HCV replicon 1AY93H (setting [2]), 18 nM.
Turning to `COC(=O)N[C@H](C(=O)N1CCC[C@H]1c1ncc(-c2cc(F)c3c(c2)OC(c2cc(C)c(C)s2)n2c-3cc3cc(-c4cnc([C@@H]5C[C@@H](F)CN5C(=O)[C@@H](NC(=O)OC)C(C)C)[nH]4)ccc32)[nH]1)C(C)C` (single isomer, unassigned) [Compound 516], the IC50 with HCV replicon 1A (HCV replicon 1A) was found to be 0.00191 nM; in the experiment on HCV replicon 2B (setting [1]), 5.2 nM; with HCV replicon 1AY93H (setting [2]), 0.0114 nM.
With `COC(=O)N[C@H](C(=O)N1CCC[C@H]1c1ncc(-c2cc(F)c3c(c2)OC(c2sc(C4CC4)cc2F)n2c-3cc3cc(-c4cnc([C@@H]5CCCN5C(=O)[C@@H](NC(=O)OC)C(C)C)[nH]4)ccc32)[nH]1)C(C)C` (single isomer, unassigned) [Compound 65], the IC50 with HCV replicon 1A (Hepatitis C virus, replicon 1A) turned out to be 0.0016 nM; with HCV replicon 2B (read-out: 2B IC50, replicon 2B), 3.6 nM; in the experiment on HCV replicon 1AY93H (setting [6]) it was 3 nM.
`CCc1ccc(C2Oc3cc(-c4cnc([C@@H]5CCCN5C(=O)C(NC(=O)OC)C5CCOC(C)(C)C5)[nH]4)cc(F)c3-c3cc4cc(-c5cnc([C@@H]6CCCN6C(=O)[C@@H](NC(=O)OC)C(C)C)[nH]5)ccc4n32)s1` (single isomer, unassigned) [Compound 159]: the half-inhibitory concentration (IC50) in the experiment on HCV replicon 1A (replicon 1A) worked out at 0.0025 nM; with HCV replicon 2B (read-out: 2B IC50, replicon 2B), 0.45 nM; in the experiment on HCV replicon 1AY93H (setting [6]), 0.77 nM.
The corresponding values for `CCc1ccc(C2Oc3cc(-c4cnc([C@@H]5CCCN5C(=O)C(NC(=O)OC)C5C[C@@H](C)O[C@@H](C)C5)[nH]4)cc(F)c3-c3cc4cc(-c5cnc([C@@H]6CCCN6C(=O)[C@@H](NC(=O)OC)C(C)C)[nH]5)ccc4n32)s1` (single isomer, unassigned) [Compound 157] are 0.0021 nM, 2.8 nM and 2.32 nM.

The record behind these values is patent publication US20160257697A1, “THIOPHENE-SUBSTITUTED TETRACYCLIC COMPOUNDS AND METHODS OFUSE THEREOF FOR THE TREATMENT OF VIRAL DISEASES” (priority 2013, published 2016).
